Experimental data published in the NIST ThermoML archive (doi:10.1021/je200373q).

Assay: xn = mol fraction of the nth substance listed
Conditions: 101 kPa, Liquid, Vibrating tube method

CCCCCCCCC [nonane] + CCCCCCCC
mass density [kg/m3]
Conditions | x2 = 0.1017 | x2 = 0.2023 | x2 = 0.3016 | x2 = 0.4 | x2 = 0.4987 | x2 = 0.6006 | x2 = 0.7002 | x2 = 0.7986 | x2 = 0.8989
273.15 K | 731.51 | 730.03 | 728.78 | 727.43 | 725.78 | 724.52 | 722.97 | 721.5 | 719.99
278.15 K | 727.69 | 726.2 | 724.94 | 723.57 | 721.91 | 720.65 | 719.08 | 717.59 | 716.07
283.15 K | 723.84 | 722.35 | 721.07 | 719.7 | 718.01 | 716.75 | 715.16 | 713.66 | 712.12
288.15 K | 719.99 | 718.48 | 717.19 | 715.8 | 714.11 | 712.83 | 711.22 | 709.71 | 708.16
293.15 K | 716.12 | 714.6 | 713.29 | 711.9 | 710.18 | 708.9 | 707.27 | 705.75 | 704.18
298.15 K | 712.24 | 710.7 | 709.38 | 707.97 | 706.24 | 704.95 | 703.31 | 701.76 | 700.18
303.15 K | 708.34 | 706.79 | 705.46 | 704.03 | 702.28 | 700.97 | 699.32 | 697.75 | 696.15
308.15 K | 704.41 | 702.86 | 701.51 | 700.07 | 698.3 | 696.98 | 695.31 | 693.73 | 692.11
313.15 K | 700.48 | 698.9 | 697.54 | 696.08 | 694.3 | 692.97 | 691.28 | 689.68 | 688.04
318.15 K | 696.52 | 694.93 | 693.55 | 692.08 | 690.27 | 688.92 | 687.22 | 685.6 | 683.95
323.15 K | 692.53 | 690.93 | 689.53 | 688.05 | 686.22 | 684.87 | 683.14 | 681.5 | 679.83
328.15 K | 688.53 | 686.91 | 685.49 | 683.99 | 682.15 | 680.78 | 679.03 | 677.37 | 675.69
333.15 K | 684.5 | 682.86 | 681.43 | 679.91 | 678.05 | 676.66 | 674.89 | 673.22 | 671.51
338.15 K | 680.44 | 678.78 | 677.34 | 675.8 | 673.91 | 672.5 | 670.73 | 669.03 | 667.3
343.15 K | 676.36 | 674.68 | 673.22 | 671.66 | 669.75 | 668.33 | 666.53 | 664.81 | 663.06
348.15 K | 672.25 | 670.55 | 669.07 | 667.5 | 665.56 | 664.12 | 662.3 | 660.56 | 658.78
353.15 K | 668.11 | 666.39 | 664.88 | 663.29 | 661.33 | 659.87 | 658.02 | 656.27 | 654.47
358.15 K | 663.93 | 662.18 | 660.67 | 659.05 | 657.07 | 655.6 | 653.72 | 651.94 | 650.1
363.15 K | 659.72 | 657.95 | 656.41 | 654.78 | 652.77 | 651.27 | 649.36 | 647.56 | 645.72

CCCCC [pentane] + CCCCCCCC
mass density [kg/m3]
Conditions | x1 = 0.1002 | x1 = 0.2008 | x1 = 0.3023 | x1 = 0.4019 | x1 = 0.5001 | x1 = 0.5982 | x1 = 0.7022 | x1 = 0.8003 | x1 = 0.8991
278.15 K | 709.35 | 704.52 | 698.24 | 691.87 | 685.19 | 678 | 669.63 | 660.99 | 651.39
283.15 K | 705.34 | 700.46 | 694.11 | 687.66 | 680.91 | 673.65 | 665.18 | 656.45 | 646.73
288.15 K | 701.31 | 696.38 | 689.94 | 683.43 | 676.6 | 669.26 | 660.68 | 651.85 | 642.04
293.15 K | 697.26 | 692.29 | 685.74 | 679.16 | 672.26 | 664.83 | 656.15 | 647.21 | 637.29
298.15 K | 693.19 | 688.16 | 681.52 | 674.87 | 667.88 | 660.37 | 651.58 | 642.52 | 632.49
303.15 K | 689.09 | 684.01 | 677.28 | 670.54 | 663.47 | 655.87 | 646.96 | 637.79 | 627.64
308.15 K | 684.97 | 679.84 | 673 | 666.19 | 659.03 | 651.33 | 642.31 | 633 | 622.72
313.15 K | 680.83 | 675.63 | 668.7 | 661.8 | 654.59 | 646.75 | 637.61 | 628.16 | 617.96
318.16 K | 676.64 | 671.38 | 664.36 | 657.38 | 650.06 | 642.12 | 632.85 | 623.27 | –
323.16 K | 672.43 | 667.11 | 659.99 | 652.92 | 645.5 | 637.45 | 628.04 | – | –
328.16 K | 668.2 | 662.81 | 655.59 | 648.42 | 640.9 | 632.73 | – | – | –
333.15 K | 663.94 | 658.48 | 651.16 | – | – | – | – | – | –
338.15 K | 659.63 | 654.1 | 646.68 | – | – | – | – | – | –
343.15 K | 655.28 | 649.68 | 642.13 | – | – | – | – | – | –
348.15 K | 650.9 | 645.21 | 637.57 | – | – | – | – | – | –
353.15 K | 646.47 | 640.7 | 632.94 | – | – | – | – | – | –
358.15 K | 642 | 636.15 | 628.27 | – | – | – | – | – | –
363.15 K | 637.48 | 631.54 | 623.54 | – | – | – | – | – | –
